Patent US20240293430A1, “WITHAFERIN A AND IMMUNE CHECKPOINT BLOCKER COMBINATION THERAPIES” (University of South Florida, priority 2023, published 2024)

Legend:
[1] = tested on: ecto-CRT in LLC, H1650 and A549 cells; experiment: Ecto-CRT (cell surface calreticulin) by flow cytometry, NSCLC; format: cell-based, mouse (LLC), human (H1650; conditions: 48 h
Experimental: Cells were treated with WFA for 48 h then collected using Accutase cell detachment solution. […] (FIG. 2E) Bone marrow-derived DC were co-cultured with WFA-pretreated LLC cells (24 h) in a ratio 5:1 of DC:LLC cells for 24 h.
In vitro WFA-treated or control cells were collected using Accutase cell detachment solution and stained with FACS-diluted (PBS, 10% FBS, 2 mMEDTA) pre-titrated fluorophore conjugated or primary unconjugated antibody solutions (Table 1) for 30 min on ice in the dark. In case of fluorophore-conjugated antibodies, samples are washed and immediately acquired after adding DAPI viability dye, while samples stained with unconjugated antibodies are incubated with the proper secondary fluorophore-conjugated antibody for 30 min before washing and acquisition. For in vivo experiments, the processed tumor or spleen single cell suspensions were used for surface staining with the pre-titrated antibodies (Table 1) for 30 min on ice in the dark. To exclude the dead cells from the analysis, a fixable live/dead Zombie Aqua viability kit (Biolegend, San Diego, CA, USA) was used according to the manufacturer's protocol. Samples were then fixed using 2% PFA for 15 min then washed and stored at 4° C. before acquisition. […]

[2] = tested on: IFN-α mRNA in LLC and H1650 cells; experiment: IFN-α qRT-PCR; format: cell-based, mouse (LLC), human (H1650)
Experimental: ROS is the main regulator of WFA-induced PD-L1 upregulation. […] All cells were treated with 0.6 μM WFA except A549, 4t1 and MDA-MB-231 cells which were treated with 4 μM, 1 μM, 2 μM WFA, respectively. […] PCR experiments were repeated twice, and one representative experiment is shown as mean±SEM of 3 technical replicates. Flow cytometry experiments were performed twice and the mean±SEM of two representative experiments is shown. Treatments were compared to the control using one-way ANOVA and Fisher LSD post hoc test. * p<0.05, ** p<0.01, *** p<0.001, **** p<0.0001.
Total cellular RNA was isolated from collected cell pellets using TRIzol reagent (Invitrogen, Waltham, MA, USA) and then quantified using the 2000 Nanodrop spectrophotometer (Thermo Fisher Scientific, Waltham, MA, USA). cDNA synthesis was performed using the Verso cDNA synthesis kit (Thermo Fisher Scientific, Waltham, MA, USA). qPCR was then performed using Forget-Me-Not EvaGreen qPCR Master Mix (Biotium, Fremont, CA, USA) in a Bio-Rad CFX384 thermocycler according to the manufacturer's instructions. The CFX Maestro software version 2.3 (Bio-Rad, Hercules, CA, USA) was used to calculate the ΔCt and ΔΔCt values and gene expression was normalized to housekeeping genes glyceraldehyde 3-phosphate dehydrogenase (GAPDH) or β-actin. […]

[3] = tested on: ROS levels in NSCLC cell lines; experiment: ROS levels with ROS indicator CM-H2DCFDA; format: cell-based, mouse (LLC), human (H1650; conditions: 24 h; WFA 0.6 μM (LLC, H1650), 4 μM (A549); NAC 5 mM
LLC flank tumors = experiment: LLC syngeneic mouse model, tumor growth; format: in vivo, C57BL/6 mice; conditions: i.p. every other day, five treatments; WFA 5 mg/kg, α-PD-L1 200 μg/mouse
Experimental: FIGS. 5A-5G depict that WFA sensitizes flank tumors to α-PD-L1 therapy and targets immunosuppressive MDSCs and T-regs. (FIG. 5A) Establishment of LLC flank tumors and treatment schedule. (FIG. 5B) Tumor volume measurement in mm^3 and tumor weight at the endpoint of the experiment. (FIG. 5C) Change in the levels of ecto-CRT in tumors was measured using flow cytometry. (FIGS. 5D-5G) Flow cytometry was used to determine the change in immune cell infiltration in collected tumors. […] Moreover, WFA reduced the immunosuppressive T regs (FIG. 5F) and CD11b+Gr1+MDSC (FIG. 5G) populations. The means of two independent experiments ±SEM are shown, and the statistical significance was calculated using one-way ANOVA and a Fisher LSD post hoc test where * and #represent p<0.05 and ** and ##represent p<0.01. * Symbols refer to the difference between the vehicle control and WFA, while #refers to comparisons between the vehicle control and WFA+α-PD-L1 combination.
C57BL/6 mice were purchased from the Jackson Laboratory (Bar Harbor, ME, USA) and acclimated for a week. To establish the LLC syngeneic tumors, C57BL/6 mice were injected with a half million cells on the right flank and monitored until tumors were first palpable (2-3 mm diameter). […] Tumor volumes (mm^3) were calculated using the equation (length^2 x width/2), where the length is defined as the bigger tumor dimension. […]

Structure (SMILES): CC1=C(CO)C(=O)O[C@@H]([C@@H](C)[C@H]2CC[C@H]3[C@@H]4C[C@H]5O[C@]56[C@@H](O)C=CC(=O)[C@]6(C)[C@H]4CC[C@]23C)C1 [WFA, Withaferin A]
- ecto-CRT expression [1]: increased
- IFN-α mRNA [2]: increased
- ROS levels [3]: increased
- tumor size / tumor growth (LLC flank tumors): non-significant reduction
